US12479847B2 (DANA-FARBER CANCER INSTITUTE, INC., priority 2019, dated 2025)

Assays:
Experiment in all cases: KINOMEscan (ScanMAX) kinase profiling
Assay type in all cases: binding
panel of 468 kinases [1] = molecular target: T1, panel of 468 kinases (Homo sapiens, UniProt P06241); conditions: FYN; 1 μM; read-out: % control
T1 construct: purchased KINOMEscan (ScanMAX) service
Experimental: (§1) The kinase selectivity of inventive compounds 12, 75, and 77 was evaluated by KINOMEscan®. KINOMEscan® (ScanMAX™) analysis was performed against a near comprehensive panel of 468 kinases. The control percentage (% control) for inventive compounds at 1 μM in DMSO was determined by Equation 1: % control=(inventive compound−positive control)/(negative control−positive control)×100%, Equation 1
(§2) wherein the positive control is a compound with a % control value of 0% relative light units (RLU), and the negative control (i.e., DMSO) has % control value of 100% RLU. The enzyme selectivity in the present invention is defined as follows: inventive compounds are considered active for an enzyme when the observed % control is less than 35% (<35%).

panel of 468 kinases [2] = molecular target: T2, panel of 468 kinases (Homo sapiens, UniProt P22694); conditions: PKAC-beta; 1 μM; read-out: % control
T2 construct: purchased KINOMEscan (ScanMAX) service
Experimental: as §1, §2

panel of 468 kinases [3] = molecular target: T3, panel of 468 kinases (Homo sapiens, UniProt P30530); conditions: AXL; 1 μM; read-out: % control
T3 construct: purchased KINOMEscan (ScanMAX) service
T3 sequence (P30530 26-894): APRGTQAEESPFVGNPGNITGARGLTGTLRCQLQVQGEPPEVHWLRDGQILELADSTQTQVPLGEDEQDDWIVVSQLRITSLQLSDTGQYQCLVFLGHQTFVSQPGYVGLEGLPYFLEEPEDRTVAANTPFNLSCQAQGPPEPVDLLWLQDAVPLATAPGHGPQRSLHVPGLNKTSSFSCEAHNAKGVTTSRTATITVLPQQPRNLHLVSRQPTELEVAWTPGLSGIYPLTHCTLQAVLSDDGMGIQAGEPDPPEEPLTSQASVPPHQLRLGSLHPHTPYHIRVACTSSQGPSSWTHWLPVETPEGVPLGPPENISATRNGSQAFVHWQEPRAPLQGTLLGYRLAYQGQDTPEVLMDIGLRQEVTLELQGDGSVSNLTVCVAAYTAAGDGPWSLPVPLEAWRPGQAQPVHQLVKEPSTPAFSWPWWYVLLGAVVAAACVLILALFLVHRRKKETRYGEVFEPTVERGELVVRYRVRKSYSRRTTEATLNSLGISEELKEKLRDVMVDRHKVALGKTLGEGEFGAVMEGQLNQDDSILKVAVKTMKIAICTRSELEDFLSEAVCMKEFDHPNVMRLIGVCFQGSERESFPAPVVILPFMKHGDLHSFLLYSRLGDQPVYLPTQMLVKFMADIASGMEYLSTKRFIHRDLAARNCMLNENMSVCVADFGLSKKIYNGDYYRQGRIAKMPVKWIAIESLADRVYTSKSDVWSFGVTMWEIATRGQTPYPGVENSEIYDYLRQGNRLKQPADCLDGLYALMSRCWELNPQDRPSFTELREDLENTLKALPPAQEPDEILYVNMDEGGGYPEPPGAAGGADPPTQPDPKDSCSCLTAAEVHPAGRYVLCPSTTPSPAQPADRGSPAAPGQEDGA
Experimental: as §1, §2

panel of 468 kinases [4] = molecular target: T4, panel of 468 kinases (Homo sapiens, UniProt P50613); conditions: CDK7; 1 μM; read-out: % control
T4 construct: purchased KINOMEscan (ScanMAX) service
Experimental: as §1, §2

panel of 468 kinases [5] = molecular target: T5, panel of 468 kinases (Homo sapiens, UniProt Q13153); conditions: PAK1; 1 μM; read-out: % control
T5 construct: purchased KINOMEscan (ScanMAX) service
Experimental: as §1, §2

panel of 468 kinases [6] = molecular target: T6, panel of 468 kinases (Homo sapiens, UniProt Q13177); conditions: PAK2; 1 μM; read-out: % control
T6 construct: purchased KINOMEscan (ScanMAX) service
Experimental: as §1, §2

panel of 468 kinases [7] = molecular target: T7, panel of 468 kinases (Homo sapiens, UniProt Q8TDC3); conditions: BRSK1; 1 μM; read-out: % control
T7 construct: purchased KINOMEscan (ScanMAX) service
T7 sequence (Q8TDC3 1-778): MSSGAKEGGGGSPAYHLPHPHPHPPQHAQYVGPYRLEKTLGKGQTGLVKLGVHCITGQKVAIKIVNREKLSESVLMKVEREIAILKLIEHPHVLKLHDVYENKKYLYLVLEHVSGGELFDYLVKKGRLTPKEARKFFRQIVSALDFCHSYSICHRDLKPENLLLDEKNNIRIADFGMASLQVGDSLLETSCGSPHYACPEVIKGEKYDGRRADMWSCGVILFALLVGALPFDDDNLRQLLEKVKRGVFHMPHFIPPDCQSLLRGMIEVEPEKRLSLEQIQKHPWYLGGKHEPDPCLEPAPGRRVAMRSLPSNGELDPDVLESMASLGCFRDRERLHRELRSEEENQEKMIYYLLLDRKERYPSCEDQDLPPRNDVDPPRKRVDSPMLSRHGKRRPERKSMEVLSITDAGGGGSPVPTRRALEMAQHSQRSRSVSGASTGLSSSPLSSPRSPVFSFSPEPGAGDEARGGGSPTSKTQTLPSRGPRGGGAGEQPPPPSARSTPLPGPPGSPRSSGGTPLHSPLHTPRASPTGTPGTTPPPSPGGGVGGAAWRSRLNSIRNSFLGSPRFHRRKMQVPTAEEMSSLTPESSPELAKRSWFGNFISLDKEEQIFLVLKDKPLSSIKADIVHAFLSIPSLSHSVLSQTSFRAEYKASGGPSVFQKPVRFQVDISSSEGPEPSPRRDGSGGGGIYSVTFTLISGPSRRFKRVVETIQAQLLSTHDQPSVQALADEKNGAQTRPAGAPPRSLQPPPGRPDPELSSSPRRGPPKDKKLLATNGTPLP
Experimental: as §1, §2

T4 sequence (P50613 whole entry): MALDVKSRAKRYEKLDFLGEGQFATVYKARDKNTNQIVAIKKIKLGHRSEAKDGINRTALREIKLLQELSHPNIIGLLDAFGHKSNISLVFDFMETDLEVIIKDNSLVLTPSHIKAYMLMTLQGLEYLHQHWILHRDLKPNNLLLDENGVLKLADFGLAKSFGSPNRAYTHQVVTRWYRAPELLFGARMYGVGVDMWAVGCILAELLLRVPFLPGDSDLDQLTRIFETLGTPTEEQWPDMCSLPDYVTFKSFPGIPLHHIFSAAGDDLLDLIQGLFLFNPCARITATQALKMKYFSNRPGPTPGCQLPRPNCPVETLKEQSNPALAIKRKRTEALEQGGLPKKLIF
T1 sequence (P06241 whole entry): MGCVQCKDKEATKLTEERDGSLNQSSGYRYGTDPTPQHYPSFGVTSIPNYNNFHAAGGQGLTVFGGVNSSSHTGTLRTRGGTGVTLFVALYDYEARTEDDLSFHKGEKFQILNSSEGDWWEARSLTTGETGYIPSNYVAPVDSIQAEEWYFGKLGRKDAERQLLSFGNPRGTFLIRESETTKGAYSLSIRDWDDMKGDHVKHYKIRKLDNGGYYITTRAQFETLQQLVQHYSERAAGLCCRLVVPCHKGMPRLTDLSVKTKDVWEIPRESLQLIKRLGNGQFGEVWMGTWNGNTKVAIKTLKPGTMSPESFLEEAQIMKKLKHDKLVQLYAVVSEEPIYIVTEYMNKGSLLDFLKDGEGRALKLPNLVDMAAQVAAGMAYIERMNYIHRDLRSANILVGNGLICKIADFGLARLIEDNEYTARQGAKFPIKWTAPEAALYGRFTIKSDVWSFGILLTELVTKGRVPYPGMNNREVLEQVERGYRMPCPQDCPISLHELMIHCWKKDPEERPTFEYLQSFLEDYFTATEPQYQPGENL
T5 sequence (Q13153 whole entry): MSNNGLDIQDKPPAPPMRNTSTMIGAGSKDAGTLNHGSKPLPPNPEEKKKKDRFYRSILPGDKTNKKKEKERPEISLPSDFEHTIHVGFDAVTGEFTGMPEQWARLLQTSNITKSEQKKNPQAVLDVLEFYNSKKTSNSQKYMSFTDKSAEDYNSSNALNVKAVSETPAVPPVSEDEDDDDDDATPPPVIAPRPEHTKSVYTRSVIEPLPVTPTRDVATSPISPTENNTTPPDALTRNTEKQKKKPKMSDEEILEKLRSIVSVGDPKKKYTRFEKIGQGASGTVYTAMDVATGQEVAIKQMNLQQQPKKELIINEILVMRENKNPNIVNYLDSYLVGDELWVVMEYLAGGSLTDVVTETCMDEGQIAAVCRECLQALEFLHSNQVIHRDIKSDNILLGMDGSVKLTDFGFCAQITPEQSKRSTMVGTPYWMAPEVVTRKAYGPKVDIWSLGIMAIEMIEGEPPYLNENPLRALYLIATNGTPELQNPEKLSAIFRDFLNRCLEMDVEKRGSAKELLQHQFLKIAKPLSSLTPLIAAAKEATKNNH
T6 sequence (Q13177 whole entry): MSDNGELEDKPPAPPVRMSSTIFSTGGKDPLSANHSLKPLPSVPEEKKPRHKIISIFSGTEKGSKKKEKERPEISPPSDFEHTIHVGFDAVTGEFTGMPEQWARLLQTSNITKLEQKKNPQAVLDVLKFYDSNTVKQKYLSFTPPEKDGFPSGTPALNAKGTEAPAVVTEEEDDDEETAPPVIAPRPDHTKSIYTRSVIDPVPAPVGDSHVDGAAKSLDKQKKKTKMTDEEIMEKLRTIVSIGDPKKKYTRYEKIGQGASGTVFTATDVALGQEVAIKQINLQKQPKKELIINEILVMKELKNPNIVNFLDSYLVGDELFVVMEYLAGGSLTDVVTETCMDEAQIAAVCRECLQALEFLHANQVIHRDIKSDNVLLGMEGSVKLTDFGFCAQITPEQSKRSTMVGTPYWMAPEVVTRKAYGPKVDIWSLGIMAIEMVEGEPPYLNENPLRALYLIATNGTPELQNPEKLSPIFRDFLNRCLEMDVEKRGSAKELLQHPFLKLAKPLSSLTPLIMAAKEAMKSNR

Structure (SMILES)	remaining binding at 1 µM (panel of 468 kinases [1])	remaining binding at 1 µM (panel of 468 kinases [2])	remaining binding at 1 µM (panel of 468 kinases [3])	remaining binding at 1 µM (panel of 468 kinases [4])	remaining binding at 1 µM (panel of 468 kinases [5])	remaining binding at 1 µM (panel of 468 kinases [6])	remaining binding at 1 µM (panel of 468 kinases [7])
CNc1nc(Nc2ccc(C(=O)N3CCC(N4CCOCC4)CC3)c3c2OCO3)nc2[nH]cc(Cl)c12 [Compound 75, (7-((5-chloro-4-(methylamino)-7H-pyrrolo[2,3-d]pyrimidin-2-yl)amino)benzo[d][1,3]dioxol-4-yl)(4-morpholinopiperidin-1-yl)methanone]	100%	100%	63%	21%	100%	100%	100%
CNc1nc(Nc2ccc(S(=O)(=O)N3CCC(N4CCOCC4)CC3)cc2OC)nc2[nH]cc(Cl)c12 [Compound 12, 5-chloro-N2-(2-methoxy-4-((4-morpholinopiperidin-1-yl)sulfonyl)phenyl)-N4-methyl-7H-pyrrolo[2,3-d]pyrimidine-2,4-diamine]	100%	100%	100%	98%	100%	100%	100%
CNc1nc(Nc2ccc(P3(=O)CCN(C4CCOCC4)CC3)cc2OC)nc2[nH]cc(Cl)c12 [Compound 77, 4-(4-((5-chloro-4-(methylamino)-7H-pyrrolo[2,3-d]pyrimidin-2-yl)amino)-3-methoxyphenyl)-1-(tetrahydro-2H-pyran-4-yl)-1,4-azaphosphinane 4-oxide]	95%	100%	93%	86%	100%	100%	96%
